In PMC8764113 (Nature Communications, 2022):
Like-named read-outs stand apart in the source and are kept apart here.

Key:
[1] = biological target: wild type PECPS (Aquilaria sinensis, UniProt A0A385MEG6); experiment: ITC binding to wild type PECPS; settings: mean ± SD (n = 3)
Description: (§1) ITC measurements of affinity (KD), stoichiometry (n) and apparent enthalpy change (ΔH°) were obtained using a Nano LV ITC calorimeter (TA Instruments). Samples for cell and injectant solutions were prepared in the same buffer (100 mM KPB, pH 7.5). All experiments were conducted at 37 °C with a stirring speed of 240 rpm and a sequence of 20 injections of 2.5 μL and 380 s delays between succeeding injections. The sample cell was filled with 47–85 μM protein solution (300 μl), while 1.09 mM 4-hydroxyphenylpropionyl-CoA (or 1.15 mM benzoyl-CoA) solution was placed in the syringe. The resulting data were processed with the standard NanoAnalyze software package (version 3.11.0), assuming the model of one type of binding site with an apparent stoichiometry close to 1:1. The first injection resulting in a heat change was disregarded in the later analysis. Titration experiments were performed in triplicate to show reproducibility. Control experiments confirmed that the heats of dilution caused by the reactant being titrated into buffer and the buffer into protein solution were negligible. The heats of dilution for the sample in the cell were subtracted from the final trace before integration with respect to time. The thermodynamic data obtained from the traces were averaged across three runs, and a standard deviation was calculated. Representative ITC thermograms and isotherm plots for experiments can be found in Supplementary Fig. 35.

[2] = test system: PECPS; experiment: Standard PECPS enzyme reaction, acceptance of starter-CoA; format: biochemical, Aquilaria sinensis; settings: condensation with 4-hydroxyphenylpropionyl-β-diketide acid
Description: The standard reaction mixture contained 26 nmol of starter-CoA (4-hydroxyphenylpropionyl-CoA/benzoyl-CoA/phenylpropionyl-CoA/2-hydroxybenzoyl-CoA/3-hydroxybenzoyl-CoA/4-hydroxybenzoyl-CoA), 29 nmol of malonyl-CoA/benzoyl-β-diketide acid/4-hydroxyphenylpropionyl-β-diketide acid (note: before β-diketide acids were added to the reaction buffer, they were first dissolved in dimethyl sulfoxide to a final concentration of 2.9 mM), and 0.4 nmol of the purified recombinant enzyme, in 100 mM KPB (pH 7.5) for a final volume of 500 μL. Incubations were performed at 37 °C for 12 h and terminated by the addition of 20 μL of 20% HCl. The reaction solution was then extracted three times with 800 μL of ethyl acetate. The organic layers were combined, evaporated to dryness with nitrogen, and dissolved in 50 μL of MeOH for LCMS-IT-TOF (Shimadzu, Japan) analysis. The HPLC was equipped with an Agilent Eclipse XDB C18 column (250 × 4.6 mm I.D., 5 μm) and eluted at a flow rate of 1.0 mL/min. For the standard assay, gradient elution was performed with H2O and acetonitrile: 0–10 min, 30% acetonitrile; 10–20 min, 30–60% acetonitrile; 20–25 min, 60–70% acetonitrile; 25–30 min, 70–80% acetonitrile; 30–35 min, 80–100% acetonitrile; 35–40 min, 100% acetonitrile.

[3] = Non-enzymatic conversion of oxidoagarochromone C in aqueous methanol, HPLC; format: physicochemical; settings: methanol aqueous solution, room temperature
Description: Figure 19. […]
HPLC chromatograms were recorded on an Agilent ZORBAXSB C18 column (250 mm × 4.6 mm, I.D., 5 μm) eluted with H2O and acetonitrile in an isocratic mode (0–30 min, 30% acetonitrile; flow rate 1.0 mL/min). Oxidoagarochromone C (S) was dissolved in 50% aqueous methanol and kept at room temperature. ATC-type PECs (1–5) converted from the substrate (S) via the non-enzymatic opening of the epoxy rings were readily apparent at 12 h and 36 h. Given that the structures of compounds 1-5 were tentatively identified by HRESI MS, the presence of methyl groups in compounds 2 and 5 is also possible on other hydroxyl groups formed by the opening of the epoxy rings, and the structures of 3 and 4 may be […]

[4] = test system: PECPS protein expression in A. sinensis calli; settings: 150 mM NaCl-treated calli
Description: GAPDH was used as internal reference. d Western blot quantification of the relative expression levels of PECPS by ImageJ and normalization to the protein levels of GAPDH. Data represent the mean ± SD (n = 3). Statistical analysis was performed with unpaired two-tailed Student’s t-tests. Significance is shown with asterisks: ****p < 0.0001, ***p < 0.001, **p < 0.01. Exact p-values and source data are provided in the source data file. Total protein was extracted from 100 mg of calli using Plant Total Protein Extraction Reagent (Invent, USA) according to the manufacturer’s instructions. The protein expression levels of PECPS were analyzed by Western blotting with an anti-PECPS antibody prepared in rabbits.

[5] = test system: PECPS expression in A. sinensis calli; settings: NaCl-treated calli
Description: Considering that PECs contain a phenylethyl moiety, 4-hydroxyphenylpropionyl-CoA, rather than p-coumaroyl-CoA, was deliberately selected as the starter substrate for the reaction with malonyl-CoA, a canonical chain extender for PKSs, and the recombinant PECPS. […] The construction of a C6–C5–C6 scaffold by coincubation of benzoyl-CoA, malonyl-CoA, and 4-hydroxyphenylpropionyl-CoA was attempted.

[6] = test system: wild type N. benthamiana leaves; experiment: Infiltration of C6-C5-C6 substrates into wild type N. benthamiana leaves, LC-MS; format: in vivo, Nicotiana benthamiana
[7] = biological target: PECPS A210E (Aquilaria sinensis, UniProt A0A385MEG6, A210E); experiment: ITC binding to PECPS A210E mutant
Chain of PECPS A210E (A0A385MEG6 entry or part of it A210E): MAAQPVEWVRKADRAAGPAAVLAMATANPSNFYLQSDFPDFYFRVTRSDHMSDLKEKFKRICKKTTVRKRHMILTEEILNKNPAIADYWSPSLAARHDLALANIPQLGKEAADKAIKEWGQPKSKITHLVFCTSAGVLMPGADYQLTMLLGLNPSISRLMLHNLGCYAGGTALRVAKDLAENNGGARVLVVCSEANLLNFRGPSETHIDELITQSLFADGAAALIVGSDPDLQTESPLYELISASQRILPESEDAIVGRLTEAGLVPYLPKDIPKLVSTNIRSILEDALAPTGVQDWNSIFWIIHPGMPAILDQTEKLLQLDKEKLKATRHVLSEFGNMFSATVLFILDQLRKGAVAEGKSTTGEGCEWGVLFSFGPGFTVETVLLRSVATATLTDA
Description: as §1
(§2) Plasmids expressing the PECPS mutants (A210E, F340W, N199L, and N199F) were generated by the Fast Mutagenesis System ([…] BIOTECH) according to the manufacturer’s instructions, using designed primers (Supplementary Table 5). The mutant enzymes were expressed, extracted, and purified by the same procedure as that for the wild type PECPS, and used in the enzyme assay and for crystallization.

[8] = biological target: PECPS F340W (Aquilaria sinensis, UniProt A0A385MEG6, F340W); experiment: ITC binding to PECPS F340W mutant
Chain of PECPS F340W (A0A385MEG6 entry or part of it F340W): as the sequence (A0A385MEG6 entry or part of it A210E) above, with E210A, F340W counted along it
Description: as §1, §2

[9] = biological target: PECPS N199L (Aquilaria sinensis, UniProt A0A385MEG6, N199L); experiment: ITC binding to PECPS N199L mutant
Chain of PECPS N199L (A0A385MEG6 entry or part of it N199L): as the sequence (A0A385MEG6 entry or part of it A210E) above, with N199L, E210A counted along it
Description: as §1, §2

[10] = biological target: PECPS N199F (Aquilaria sinensis, UniProt A0A385MEG6, N199F); experiment: ITC binding to PECPS N199F mutant
Chain of PECPS N199F (A0A385MEG6 entry or part of it N199F): as the sequence (A0A385MEG6 entry or part of it A210E) above, with N199F, E210A counted along it
Description: as §1, with “Representative ITC thermograms and isotherm plots for experiments can be found in Supplementary Fig. 35.” left out

[11] = biological target: 2-(2-phenylethyl)chromone precursor synthase (PECPS), wild type, recombinant (Aquilaria sinensis); experiment: SEC; purified recombinant PECPS; approximately 86 kDa against a calculated 43 kDa for the monomer (Supplementary Fig. 4b); column and buffer of this run not told
[12] = test system: NaCl-stressed A. sinensis cells; experiment: Substrate feeding to NaCl-stressed A. sinensis suspension cells, LC-MS; format: cell-based, Aquilaria sinensis; settings: NaCl-stressed A. sinensis cells fed with substrate
Description: To verify the aforementioned hypothesis that diarylpentanoid is the common precursor of PECs, substrate-feeding experiments were performed. First, a putative innate-substrate, 5-(4-hydroxyphenyl)-1-phenylpentane-1,3-dione (2), was fed to NaCl-stressed A. sinensis cells, and its metabolites were carefully analyzed by LC–MS. […] Next, the fluorine-containing nonphysiological substrate 5-(4-F-phenyl)-1-phenylpentane-1,3-dione (F-2) was fed to NaCl-stressed A. sinensis cells. As a result, 10 fluorinated PECs (C01–C10) were successfully obtained by LC–MS guided separation and purification (Fig. 2b and Supplementary Fig. 8), and the structures of C01–C06 were unequivocally determined by extensive spectroscopic techniques, including ^1H-NMR, ^13C-NMR and HRESI-MS (Supplementary Figs. 9–14 and Supplementary Tables 2 and 3). Unfortunately, attempts to elucidate the structures of compounds C07–C10 by NMR techniques were complicated by their small yields. […]
Robustly growing suspension cells (200 mL × 10) were treated with NaCl (final concentration 150 mM) and immediately fed the fluorine-labeled substrate F-2 (20 mg × 10). […] Fluorinated PECs could be detected from the crude residue by LC–MS (Supplementary Fig. 8). […]

Chain of wild type PECPS (A0A385MEG6 entry or part of it): as the sequence (A0A385MEG6 entry or part of it A210E) above, with E210A counted along it

Compound `CC(C)(COP(=O)(O)OP(=O)(O)OC[C@H]1O[C@@H](n2cnc3c(N)ncnc32)[C@H](O)[C@@H]1OP(=O)(O)O)[C@@H](O)C(=O)NCCC(=O)NCCSC(=O)c1ccccc1` [benzoyl-CoA] has a Kd ([1]; ITC, 100 mM KPB pH 7.5, 37 °C) of roughly 1000 µM.
With `CC(C)(COP(=O)(O)OP(=O)(O)OC[C@H]1O[C@@H](n2cnc3c(N)ncnc32)[C@H](O)[C@@H]1OP(=O)(O)O)[C@@H](O)C(=O)NCCC(=O)NCCSC(=O)c1ccccc1O` [2-hydroxybenzoyl-CoA] the “acceptance as starter by PECPS to produce the C6–C5–C6 scaffold” value [2] was “not accepted”.
For `CC(C)(COP(=O)(O)OP(=O)(O)OC[C@H]1O[C@@H](n2cnc3c(N)ncnc32)[C@H](O)[C@@H]1OP(=O)(O)O)[C@@H](O)C(=O)NCCC(=O)NCCSC(=O)c1cccc(O)c1` [3-hydroxybenzoyl-CoA], the “acceptance as starter by PECPS to produce the C6–C5–C6 scaffold” value [2] was “could accept”.
With oxidoagarochromone C the “products from the opening of the epoxy ring (non-enzymatic conversion to ATC-type PECs)” value [3] was “readily detected”.
In the case of `[Cl-].[Na+]` [NaCl], the “Relative expression level of PECPS protein (PECPS/GAPDH), Mean” value ([4]; 0 h) is reported as 0.2667, the “Relative expression level of PECPS protein (PECPS/GAPDH), Mean” value ([4]; 24 h) is reported as 0.4551 and the “Relative expression level of PECPS protein (PECPS/GAPDH), Mean” value ([4]; 48 h) is reported as 1.257. The “Relative expression level of PECPS protein (PECPS/GAPDH), Mean” value ([4]; 72 h) was 1.846, the “Relative expression level of PECPS protein (PECPS/GAPDH), Mean” value ([4]; 96 h) was 1.18 and the “Relative expression level of PECPS (qRT-PCR), Mean” value ([5]; 0 h) was 0.3162. For the same compound, the “Relative expression level of PECPS (qRT-PCR), Mean” value ([5]; 24 h) was 0.7432, the “Relative expression level of PECPS (qRT-PCR), Mean” value ([5]; 48 h) was 2.33 and the “Relative expression level of PECPS (qRT-PCR), Mean” value ([5]; 72 h) was 6.264. The “Relative expression level of PECPS (qRT-PCR), Mean” value ([5]; 96 h) was 1.556.
In the case of `O=C(CCc1ccccc1)CC(=O)c1ccccc1` [1,5-diphenylpentane-1,3-dione], the “biotransformation in wild type N. benthamiana leaves” value [6] is reported as “converted to PECs”.
In the case of `CC(C)(COP(=O)(O)OP(=O)(O)OC[C@H]1O[C@@H](n2cnc3c(N)ncnc32)[C@H](O)[C@@H]1OP(=O)(O)O)[C@@H](O)C(=O)NCCC(=O)NCCSC(=O)CCc1ccc(O)cc1` [4-hydroxyphenylpropionyl-CoA], the “-TΔS” value ([1]; ITC) is reported as -3.748 ± 0.464 kcal/mol, the “n (stoichiometry)” value ([1]; ITC) is reported as 1.10±0.12 and the ΔH ([1]; ITC) is reported as -2.968 ± 0.425 kcal/mol. The ΔS ([1]; ITC) was 50.56 ± 6.28 J/molꞏK, the Ka ([1]; ITC, listed as 4-hydorxyphenylpropionyl-CoA) was 54.06 ± 4.14 mM⁻¹ and the Kd ([1]; Supplementary Table 4, ITC) was 18.6 ± 1.37 µM. For the same compound, the Kd [7] was 40.1 ± 4.52 µM, the “binding affinity, times lower than that of the wild-type” value ([7]; A210E vs wild type PECPS, ITC) was 2.1 times and the “-TΔS” value ([7]; ITC, mean ± SD (n = 3)) was -2.483 ± 0.397 kcal/mol. The Ka ([7]; ITC, mean ± SD (n = 3)) was 25.12 ± 2.98 mM⁻¹, the “n (stoichiometry)” value ([7]; ITC, mean ± SD (n = 3)) was 0.99±0.02 and the ΔG ([7]; ITC, mean ± SD (n = 3)) was -6.243 ± 0.0717 kcal/mol. For the same compound, the ΔH ([7]; ITC, mean ± SD (n = 3)) was -3.76 ± 0.323 kcal/mol, the ΔS ([7]; ITC, mean ± SD (n = 3)) was 33.49 ± 5.34 J/molꞏK and the Kd [8] was 12.4 ± 2.07 µM. For the same compound, the “-TΔS” value ([8]; ITC, mean ± SD (n = 3)) was -5.251 ± 0.28 kcal/mol, the Ka ([8]; ITC, mean ± SD (n = 3)) was 82.07 ± 12.96 mM⁻¹ and the “n (stoichiometry)” value ([8]; ITC, mean ± SD (n = 3)) was 0.91±0.06. The ΔG ([8]; ITC, mean ± SD (n = 3)) was -6.969 ± 0.1 kcal/mol, the ΔH ([8]; ITC, mean ± SD (n = 3)) was -1.72 ± 0.177 kcal/mol and the ΔS ([8]; ITC, mean ± SD (n = 3)) was 70.83 ± 3.75 J/molꞏK. For the same compound, the Kd [9] was 120 ± 10.8 µM, the Ka ([9]; ITC, mean ± SD (n = 3)) was 8.35 ± 0.71 mM⁻¹ and the “n (stoichiometry)” value ([9]; ITC, mean ± SD (n = 3)) was 0.87±0.06. For the same compound, the ΔG ([9]; ITC, mean ± SD (n = 3)) was -5.564 ± 0.055 kcal/mol, the ΔH ([9]; ITC, mean ± SD (n = 3)) was -4.708 ± 0.402 kcal/mol and the ΔS ([9]; ITC, mean ± SD (n = 3)) was 11.50 ± 4.86 J/molꞏK. For the same compound, the “binding affinity, times weaker than that of wild type PECPS” value ([9]; N199L vs wild type PECPS, ITC) was 6.5 times and the Kd [10] was roughly 1000 µM.
Work on “2-(2-phenylethyl)chromone precursor synthase (PECPS), wild type, recombinant (enzyme)” yielded a stoichiometry N [11] of 2.
In the case of `CC(C)(COP(=O)(O)OP(=O)(O)OC[C@H]1O[C@@H](n2cnc3c(N)ncnc32)[C@H](O)[C@@H]1OP(=O)(O)O)[C@@H](O)C(=O)NCCC(=O)NCCSC(=O)c1ccc(O)cc1` [4-hydroxybenzoyl-CoA], the “acceptance as starter by PECPS to produce the C6–C5–C6 scaffold” value [2] is reported as “could accept”.
With `O=C(CCc1ccc(O)cc1)CC(=O)c1ccccc1` [compound 2, 5-(4-hydroxyphenyl)-1-phenylpentane-1,3-dione] the “accumulation of PECs (P1–P5) in substrate-fed cells” value [12] was “visibly increased” and the “biotransformation in wild type N. benthamiana leaves” value [6] was “converted to PECs”.
